# Earlier results, collected in patent US20120237592A1, “ENDOPLASMIC RETICULUM TARGETING LIPOSOMES” (priority 2008, published 2012).
# Assays:
# HIV = settings: literature
# BVDV = settings: literature
# HIV-1 = HIV-1 infected patients, literature
# HBV = settings: literature
compound,measurement,setting,value
"CCCCN1C[C@H](O)[C@@H](O)[C@H](O)[C@H]1CO [NB-DNJ, N-butyl-1,5-dideoxy-1,5-imino-D-glucitol]",infectious virus released from HIV-infected cells,HIV,greatly reduced
same,infectivity of BVDV viral progeny,BVDV,decreased infectivity of viral progeny
same,tolerability at concentrations necessary for antiviral activity,HIV-1,serious side-effects
same,secretion of HBV particles,HBV,suppresses secretion of HBV particles
